How the values were obtained:
[1] = test system: isolated rat aorta constricted with methoxamine; test: Vasodilation effects on isolated aorta of rats (methoxamine-constricted rings); conditions: isolated rat aorta constricted with methoxamine (3 μM); 50% relaxation
Source text: Male Sprague-Dawly rats (350-450 g, obtained from the Experimental Animal Team of the Korea Research Institute of Chemical Technology) were knocked unconscious by hitting the occipital region, sacrificed by cervical dislocation, and underwent thoracotomy. After being quickly removed, the thoracic aorta was deprived of the adipose tissue and cut into aortic rings of 3 mm width. The aorta was lightly rubbed with cotton club soaked in a modified Krebs Henseleit buffer (Physiological Salt Solution, PSS) to remove the inner epithelial layer therefrom.
Thereafter, 3×10^−6 M methoxamine was applied to induce an intensive constriction in the vascular smooth muscle. When the vasoconstriction induced by the methoxamine was reached and maintained to a maximum, test compounds and controls were cumulatively added to the organ baths in concentrations of 1, 3, 10 and 30 μM so as to examine the vasodilation effect.
The change rate of constriction by the addition of the drugs compared to the maximal constriction induced by methoxamine was calculated to plot a concentration-relaxation response curve.

[2] = test system: ischemic myocardium damage model of anesthetized rats; test: Cardioprotective activity in ischemic heart models of rats (LAD occlusion/reperfusion, anesthetized rats); assay type: in vivo, rat; conditions: rat, in vivo, iv, 0.3 mg/kg
Experimental: After trachetomy, the rats were rendered to respire artificially at a rate of 60/min with a stroke volume of 10 ml/kg. Cannulars were inserted into the fermoral vein and the fermoral artery and used for drug administration and blood pressure measurement, respectively.
In the ischemic myocardial injury models, the body temperature has an important influence on the results. To avoid the change in the body temperature, a body temperature measuring probe was inserted into the rectum of each rat and the body temperature was constantly kept at 37° C. with the aid of a homeothermic blanket control unit.
Afterwards, during testing, a continuous measurement was made of the mean arterial blood pressures and heart rates from the rats. For the measurement of the blood pressure, a pressure transducer, such as that manufactured by Grass Ins., MA, U.S.A., identified as Model Statham P23XL, was used.
The heart rate was measured by a tachometer, such as that manufactured by Gould Inc., Ohio, U.S.A., identified as Biotachometer. In addition, all of the changes occurring were continuously recorded through the Gould 2000 chart recorder, manufactured by Gould Inc.
The left coronary artery was occluded according to the Selye H. method as follows. The rats underwent a left thoracotomy operation for partial opening of the chest and the right-side chest was pressurized by the middle finger of the left hand to push the heart out. Immediately after the left anterior descending coronary artery hereinafter referred to as (LAD) was carefully stitched using a suture needle with 5-0 silk ligature, the heart was then repositioned in the thoracic cavity while both ends of the ligature were situated outside. The opposite ligature ends were passed through a PE tube (PE100, 2.5 cm) and allowed to stand loose for 20 min for stabilization. Via the cannula inserted into the femoral vein, vehicles or drugs were administered into the rats which were rendered to stand for 30 min in order to sufficiently elicit the efficacies of the drugs.
Next, the PE tube which had the doubled strands of the ligature passed therethrough was pushed toward the heart and then, set upright by tightly pulling end regions of the ligature with a hemostatic pincette while pressing the coronary artery.
After the reocclusion of the coronary artery in accordance with the above procedure, the rats were administered with 2 ml of a 1% Evans blue through an intravenous route. Subsequently, an excess of pentobarbital was intravenously injected to kill the rats, after which the heat was removed and then, deprived of the right ventricle and both atria. The left ventricle was cut horizontally to the heart apex into 5 or 6 slices which were weighed. From the surface of each slice, images were input with the aid of a Hi-scope into a computer installed with an image analyzing program (Image Pro Plus). From the images input into the computer, the area of the normal blood stream tissue region which appeared blue in a computer monitor and the area which appeared colorless were measured. The percentage of the colorless area to the total area of each slice was calculated and multiplied by the weight of each slice to determine the area at risk (AAR) of each slice. The AAR obtained from each slice was summed for all slices and the total AAR was divided by the total weight of the left ventricle to yield % AAR, as shown in the following mathematical formula 1:
AAR(%)=(summed AAR for all slices)/(total weight of left ventricle)×100 [Mathematical Formula 1]
During this fixation, 2,3,5-triphenyltetrazolium chloride was reduced into formazan dye by the myocardial dehydrogenase and its cofactor NADH, so that the normal regions of the tissue were colored brick-red. In contrast, the infarct zones of the tissue were deficient in the dehydrogenase and its cofactor, so that no reduction occurred on the 2,3,5-triphenyltetrazolium, allowing the color to remain unchanged.

[3] = test system: cerebral cortical neurons; test: Protective activity for neuronal cells against iron-induced damage (LDH release); assay type: cell-based, rat; conditions: 30 μM compound, 50 uM FeSO4, 24 hours, LDH reduction rate vs control
Experimental: From the brains of 17-18 day-old rat embryos, cerebral cortical neurons were isolated and then, cultured at 37° C. for 7-9 days in a 5% CO2 incubator. The cortical cell cultures were washed twice with a minimum essential medium (MEM) to reduce the serum concentration to 0.2% and pre-treated for 30 min with 30 μM of each of test compounds. For the experiments, the test compounds were dissolved in DMSO and diluted in a medium. At this time, the final concentration of DMSO was not allowed to exceed 0.2%. For a control group, only vehicle was applied.
After the pre-treatment with test compounds or vehicle, FeSO4 was added to a final concentration of 50 uM, and the cultures were maintained for 24 hours in a CO2 incubator. During incubation, lactate dehydrogenase (LDH) was released into the medium upon neuronal death by the oxidative toxicity of iron. The extent of neuronal damage was assessed by measuring the amount of LDH released into the media. The protective effect of the compounds of interest on neurons was evaluated by calculating the LDH reduction rate of treatment group compared with that of the control group.

rat brain homogenate = test: Inhibitory activity against iron-induced lipid peroxidation (MDA quantification); assay type: biochemical; conditions: 100 μM compound, 400 μM FeCl2, 37° C., 30 min, MDA reduction rate vs control
Experimental: The rat brain was homogenized in a Krebs buffer (15 mM HEPES, 10 mM glucose, 140 mM NaCl, 3.6 mM KCl, 1.5 mM CaCl2, 1.4 mM KH2PO4, 0.7 mM MgCl2, pH 7.4) and the supernatant separated by centrifugation at 12,000 rpm for 10 min was used for further experiments. FeCl2 was added to a final concentration of 400 μM in the brain homogenate which was then allowed to stand at 37° C. for 30 min for the facilitation of oxidation. Each of the test compounds was added at a concentration of 100 μM and vehicle was used as a control.
Iron facilitates the oxidation of the brain homogenate to produce malondialdehyde (MDA), a lipid peroxidation product. Thus, the lipid peroxidation was determined by MDA quantification. The inhibitory effect of the test compounds against the lipid peroxidation was evaluated by calculating MDA reduction rate of the test compounds compared with that of the control group.
Typically, the MDA quantification is achieved by reacting samples with 2-thiobarbituric acid (TBA) and measuring the absorbance at 530 nm. However, this method is unsuitable to treat samples on a large scale because of a boiling step. Thus, in this experiment, N-methyl-2-phenylindole was used instead of TBA. […] Bioxytech^R LPO-586 Kit was used for MDA quantification.

isolated rat hearts = test: Cardioprotective activity in isolated ischemic heart models of rats (Langendorff, global ischemia/reperfusion); conditions: for EDP (MmHg) / LDVP × HR (%) / TTC: 10 μM; for EDP (MmHg): left ventricular end-diastolic pressure after 30 min reperfusion; for LDVP × HR (%): reperfusion double product as % of pretreatment DP, 30 min global ischemia, 30 min reperfusion; for TTC: time to contracture during global ischemia
Experimental: Male Sprague-Dawley rats weighing 300-450 g were anesthetized with sodium pentobarbital (100 mg/kg, i.p.). The tail vein was injected with heparin (1,000 U/kg) and then the trachea was intubated. […] A latex balloon filled with solvent (ethanol: water=1:1 (v/v)) and attached to a metal cannula was placed in the left ventricle through pulmonary vein and connected to a Isotec pressure transducer (H.S.E., Germany) for measurement of left ventricular pressure (LVP). […] Then, baseline contractile function, heart rate (HR), and coronary flow (CF) (extracorporeal electromagnetic flow probe, Narco Bio-System, U.S.A.) were measured. Cardiac contractile function was calculated by subtracting LVEDP from LV peak systolic pressure (LVSP), yielding developed pressure (LVDP). Double product (DP), another important parameter for assessing cardiac performance, was calculated by multiplying HR by LVDP. Throughout the experiment, all these parameters were measured, and calculated before and 10 min after pretreatment with each compound and 30 min after the onset of reperfusion with buffer. Data on reperfusion DP were further expressed as the percentage to pretreatment DP.
We then rendered the hearts globally ischemic by completely shutting off the perfusate for 30 min. Severity of ischemia was determined as the time to contracture (TTC, min) during global ischemia in which the first 5 mmHg increase in EDP was observed. Then, the hearts were reperfused and, 30 min later, contractile function (LVDP, DP) and cumulative reperfusion lactate dehydrogenase (LDH) release were measured. LDH was measured as a sensitive index for loss of cell viability with a kit supplied by Boerhinger Mannheim based on the technique of Wroblewski and LaDue [F. Wroblewski and JS.

With `CCOC(=O)[C@@H]1Cc2cc(Cl)ccc2N1[C@H]1c2cc([N+](=O)[O-])ccc2O[C@](C)(C(OC)OC)[C@@H]1O` [Example 20, 1-[(2S, 3R, 4S)-3,4-dihydro-2-dimethoxymethyl-3-hydroxy-2-methyl-6-nitro-2H-1-benzopyran-4-yl]-(2S)-2,3-dihydro-1H-5-chloroindole-2-carboxylic acid ethyl ester] the IC50 [1] was over 30 µM, the “AAR/LV (%)” value [2] was 35.4% and the “IZ/AAR (%)” value [2] was 35.1%. The “% Protection” value [3] was 69%.
For `CCOC(=O)[C@H]1Cc2ccccc2N1[C@@H]1c2cc(N)ccc2O[C@](C)(C(OC)OC)[C@H]1O` [Example 44, 1-[(2S, 3S, 4R)-6-amino-3,4-dihydro-2-dimethoxymethyl-3-hydroxy-2-methyl-2H-1-benzopyran-4-yl]-(2R)-2,3-dihydro-1H-indole-2-carboxylic acid ethyl ester], the “% Protection” value [3] was 89% and the “% Inhibition” value (rat brain homogenate; listed as EX. 44) was 90%.
`CCOC(=O)[C@@H]1Cc2ccccc2N1[C@@H]1c2cc(N)ccc2O[C@](C)(C(OC)OC)[C@H]1O` [Example 45, 1-[(2S, 3S, 4R)-6-amino-3,4-dihydro-2-dimethoxymethyl-3-hydroxy-2-methyl-2H-1-benzopyran-4-yl]-(2S)-2,3-dihydro-1H-indole-2-carboxylic acid ethyl ester] was tested, and the “% Protection” value ([3]; listed as EX. 45) was 96% and the “% Inhibition” value (rat brain homogenate) was 81%.
`CCOC(=O)[C@@H]1Cc2ccccc2N1[C@H]1c2cc(N)ccc2O[C@](C)(C(OC)OC)[C@@H]1O` [Example 43, 1-[(2S, 3R, 4S)-6-amino-3,4-dihydro-2-dimethoxymethyl-3-hydroxy-2-methyl-2H-1-benzopyran-4-yl]-(2S)-2,3-dihydro-1H-indole-2carboxylic acid ethyl ester] was tested, and the “% Protection” value [3] was 100%, the “% Protection” value ([3]; listed as EX. 43) was 101% and the “% Inhibition” value (rat brain homogenate; listed as EX. 43) was 93%.
With `CCOC(=O)c1cc2ccccc2n1[C@H]1c2cc(N)ccc2O[C@](C)(C(OC)OC)[C@@H]1O` [Example 52, 1-[(2S, 3R, 4S)-6-amino-3,4-dihydro-2-dimethoxymethyl-3-hydroxy-2-methyl-2H-1-benzopyran-4-yl]-1H-indole-2-carboxylic acid ethyl ester] the “% Protection” value [3] was 100% and the “% Inhibition” value (rat brain homogenate; listed as EX. 52) was 95%.
`CCOC(=O)[C@H]1Cc2ccccc2N1[C@H]1c2cc(N)ccc2O[C@](C)(C(OC)OC)[C@@H]1O` [Example 42, 1-[(2S, 3R, 4S)-6-amino-3,4-dihydro-2-dimethoxymethyl-3-hydroxy-2-methyl-2H-1-benzopyran-4-yl]-(2R)-2,3-dihydro-1H-indole-2-carboxylic acid ethyl ester] was tested, and the “% Protection” value [3] was 100% and the “% Inhibition” value (rat brain homogenate; listed as EX. 42) was 90%.
`CCOC(=O)[C@H]1Cc2cc(OC)ccc2N1[C@H]1c2cc([N+](=O)[O-])ccc2O[C@](C)(C(OC)OC)[C@@H]1O` [Example 11, 1-[(2S, 3R, 4S)-3,4-dihydro-2-dimethoxymethyl-3-hydroxy-2-methyl-6-nitro-2H-1-benzopyran-4-yl]-(2R)-2,3-dihydro-1H-5-methoxyindole-2-carboxylic acid ethyl ester] was tested, and the IC50 [1] was 16.5 µM, the “LDH (U/g)” value (isolated rat hearts) was 13.3 U/g and the “EDP (MmHg)” value (isolated rat hearts) was 14.7 MmHg. The “LDVP × HR (%)” value (isolated rat hearts) was 66.5%, the “TTC” value (isolated rat hearts) was 22.9 min and the “AAR/LV (%)” value [2] was 38.3%. The “IZ/AAR (%)” value [2] was 42.1%.
With `CCOC(=O)c1cc2ccccc2n1[C@@H]1c2cc(N)ccc2O[C@](C)(C(OC)OC)[C@H]1O` [Example 53, 1-[(2S, 3S, 4R)-6-amino-3,4-dihydro-2-dimethoxymethyl-3-hydroxy-2-methyl-2H-1-benzopyran-4-yl]-1H-indole-2-carboxylic acid ethyl ester] the “% Protection” value ([3]; listed as EX. 53) was 94% and the “% Inhibition” value (rat brain homogenate; listed as EX. 53) was 91%.
For `CCOC(=O)[C@@H]1Cc2cc(OC)ccc2N1[C@@H]1c2cc([N+](=O)[O-])ccc2O[C@@](C)(C(OC)OC)[C@H]1O` [Example 35, 1-[(2R, 3S, 4R)-3,4-dihydro-2-dimethoxymethyl-3-hydroxy-2-methyl-6-nitro-2H-1-benzopyran-4-yl]-(2S)-2,3-dihydro-1H-5-methoxyindole-2-carboxylic acid ethyl ester], the IC50 [1] was over 30 µM, the “LDH (U/g)” value (isolated rat hearts) was 23.2 U/g and the “EDP (MmHg)” value (isolated rat hearts) was 19 MmHg. The “LDVP × HR (%)” value (isolated rat hearts) was 57.3%, the “TTC” value (isolated rat hearts) was 25.1 min and the “AAR/LV (%)” value [2] was 31.6%. The “IZ/AAR (%)” value [2] was 37.8%.

Source: US6413983B1, “Benzopyranyl heterocycle derivatives, process for preparation thereof, and pharmaceutical compositions containing them” (Dongbu Hannong Chemical Co. Ltd., priority 2000, dated 2002)
